Experimental data: patent US7893109B2, “N,N-dihalogenated amino acids and derivatives” (Novabay Pharmaceuticals, Inc., priority 2003, dated 2011)
Converted amounts (≈) assume the structure as drawn. Where two headings read alike, the source gives them in different places.

Tests used:
[1] = tested on: Escherichia coli (ATCC 11229); assay: Bactericidal activity (MBC / effective antimicrobial concentration); type: cell-based
Method: To determine the bactericidal activity, we used Escherichia coli (ATCC 11229). The bacterial culture was diluted in sterile saline to prepare inocula. Various test articles were transferred to individual tubes already containing 1.0×10^5 to 2.0×10^5 Colony Forming Units (CFU)/mL bacteria and mixed by gentle vortexing and then incubated at 37° C. for 1 or 24 hours. In an attempt to mimic as far as possible the conditions, which could be produced in vivo if the test articles were used as antiseptics, bacterial plating in a Petri dish was performed immediately after the designated exposure time without the addition of a neutralizer, and independently with addition of neutralizer (as control). Thus, 0.1 mL was removed after 1 or 24 hours exposure times and plated. Plates were incubated at 37° C., and the numbers of bacteria were counted by direct colony count to numerate the surviving bacteria as CFU/mL. Positive growth controls were made with sterile 0.9% saline. All test articles were tested three times.

[2] = type: physicochemical
Text: N,N-dichlorotaurine can be identified and quantitatively determined by UV spectroscopy.

[3] = pH=1.88; after 100 hours; cited from earlier work
[4] = Volatility test, tightly vs loosely capped bottles; type: physicochemical; details: 1.47 mM in 0.9% saline at pH 3.5; 4 weeks at room temperature
Method: NNDCT is not volatile. A solution of 1.47 mM in 0.9% saline at pH 3.5 was filled in two glass bottles. One bottle was capped tightly and another was capped loosely.

[5] = tested on: Primary Human Skin Fibroblasts; assay: XTT cytotoxicity assay, primary human skin fibroblasts; details: for cell inhibitory concentration toxicity index (CCI50 / IC50), 50% of cells still alive: Primary Human Skin Fibroblasts, XTT Assay, 60 min exposure
Method: (§1) Cytotoxicity was assessed by a […] assay system, initially described by Scudiero et al., using 3′-(phenylamino-carbonyl)-3,4-tetrazolium-bis(4-methoxy-6-nitro) benzene sulfonic acid hydrate (XTT), ProCheck™ cell viability assay (Evaluation of a soluble tetrazolium/formazan assay for cell growth and drug sensitivity in culture using human and other tumor cell lines described by Scudiero D A, Shoemaker R A H, Paul K D, Monks A, Tierney S, Nofziger T H, Currens M J, Seniff D, Boyd M R. Cancer Res. 1988 Sep. 1; 48(17):4827-33). Similar approaches for determining the cell viability are used by other investigators. Three cell types were used: […] (L929), primary human skin fibroblast and primary human keratinocyte cells cultured in Dulbecco Modified Eagle's Medium and Keratinocyte defined medium with corresponding growth factors plus antibiotics. Cells were trypsinized and counted under the microscope and seeded at 1000-to-2000 cells per well of a flat-bottom 96-well plate. Cells were allowed to grow over-night at 37° C. Next day, tissue culture media was removed and cells were rinsed with fresh media 1× and then left in 50 μL of tissue culture media. Test articles were prepared as 2-fold dilutions and 200 μL was added into each set of 4-wells (total volume per well=250 μL). Cells were exposed to test articles for 60 min at room temperature. Immediately after the exposed time, test article from each well was removed and cells were fed with 250 μL of fresh media. Plates were incubated at 37° C. for 18-20 hours. The following day media was removed again and replaced with 100 μL/well of fresh media containing 10/100 μL XTT-reagent. Cells were incubated under growth conditions (5% CO2 at 37° C. humidified incubator), protected from light, until color development was achieved. Absorbance was read at 450 nm with reference wavelength at 750 nm using Molecular Device ThermoMax Plate reader, blanking the plate on the medium-only assay blank wells. Untreated cells receiving XTT reagents-only served as positive cell proliferation control.

in vitro = details: human, pH 3.5
Method: as §1

[6] = UV-vis spectrum and concentration of NNDCT solutions at pH 3.0 to 5.0; type: physicochemical; details: 1.49 mM; pH range from 3.0 to 5.0
Method: The spectra and the concentrations of the solutions were measured on the UV-vis spectrometer.
Add 8.8 g NaCl, 2 ml of 1.0 M HCl, and 0.278 g of taurine into a 1000-ml volumetric flask, followed by adding about 800 ml of deionized water into the flask. Shake the flask to dissolve NaCl and taurine powders. Then add […] of 0.15M of the NaOCl solution into the flask. Fill the flask up to the mark with deionized water. Stir the solution with a magnetic stirring bar for 5 minutes. The concentration and the pH of the resulting solution were measured on a UV-vis spectrometer and a freshly calibrated Beckman pH meter. This solution has a concentration of 1.49 mM and a pH value of 3.85. […] The final pH of this solution is 3.0. […] The final pH of this solution is 4.85.
Solutions with varying pH values were prepared in a similar manner within the pH range of 3 to 5. All solutions show stability if properly stored as shown by their UV spectra.

[7] = Storage stability of N,N-dichlorotaurine solution in a vial in a refrigerator; type: physicochemical; details: solution in a vial stored in a refrigerator; three months
Method: The stability of a solution of N,N-dihaloamino acids and their derivatives permits the use of different forms of packaging that would be practical for use by patients. The solution may be packaged in several single-use 30 ml amber glass bottles with Teflon-lined screw caps and sealed with tape to ensure gas tightness. In one aspect, the same solution may be packaged in a 250 ml amber glass bottle or in a 250 ml non-reactive plastic bottle. However, up to 5 liter bottles may be used, because such larger volumes are practical for treatment of burns. Storage in these receptacles ensures long-term stability required for the uses of the compositions described herein in detail. […] Additionally, packaging may include a dual chamber system where component A is mixed with component B to form the final product, N,N-dihaloamino acid or its derivatives.

[8] = pH 3.5

O=S(=O)(O)CCNCl [NCT, N-chlorotaurine, reference compound]
factor by which less antimicrobial than NNDCT ([1]; on an equal concentration basis): 1000 fold

O=S(=O)(O)CCN(Cl)Cl [NNDCT, N,N-dichlorotaurine]
solubility in water [2]: very soluble | bacterial killing efficiency of NNDCT at pH 3.5 compared to NCT at pH 9.5 ([1]; 60 min exposure at 37° C.): 1000 fold | bacterial killing efficiency of NNDCT at pH 3.5 over NNDCT at pH 5.0 ([1]; 60 min exposure at 37° C.): about 300 fold | effectiveness against E. coli compared with HOCl ([1]; pH 3.5): better or as effective against E. coli as HOCl | loss of N,N-dichlorotaurine [3]: less than 5% | volatility [4]: not volatile | range of cell toxicity relative to antimicrobial (μM) range ([5]; 0.9% saline at pH 3.5, XTT assay, cell type not stated in Example 5): 1000 fold | cell inhibitory concentration toxicity index (CCI50 / IC50), 50% of cells still alive [5]: 7000 µM | IC50 at 60 min (in vitro): 1440 µg/mL (≈ 7.43 mM) | change of spectrum and concentration of solution with pH [6]: did not change | loss of N,N-dichlorotaurine [7]: no more than 13% | NNDCT lost ([8]; 4 weeks, refrigerator (4° C.), [NNDCT]initial=1.47 mM): 5.4% | order of stability at three temperatures [8]: 4° C.>room temperature>40 °C

OCl [HOCl, hypochlorous acid, reference compound]
cell inhibitory concentration toxicity index (CCI50 / IC50), 50% of cells still alive [5]: 800 µM | IC50 at 60 min (in vitro): 47 µg/mL (≈ 0.896 mM)

OCl [OCl^−, reference compound]
cell inhibitory concentration toxicity index (CCI50 / IC50), 50% of cells still alive [5]: 660 µM
